≈ marks a conversion by molar mass, not a printed value. Where two headings read alike, the source gives them in different places.
How the values were obtained:
gastric acid secretion [1] = experiment: Inhibition of basal Gastric Acid Secretion (Acute Gastric Fistula Rat); assay type: in vivo, Female Sprague-Dawley rats; conditions: 10 mg./kg. intraduodenal
Method: Inhibition of basal gastric acid secretion was determined in the acute gastric fistula rat as follows. Female Sprague-Dawley rats (Charles River Laboratories) weighing 140-160 grams are fasted in individual cages for 18-24 hours. The rats are then lightly anesthetized with ether and their front teeth extracted to avoid destruction of the plastic cannula. A midline incision is then made and the stomach and duodenum exposed. A flanged polyvinyl tube is inserted into the fundic portion of the stomach and secured with a purse string suture line using 4-0 Mersilene. The rat is then dosed by injection of the compound into the duodenum (1.0 ml. per 100 gram body weight). After dosing, the abdominal wall and skin are closed using metal wound clips. The rat is replaced in a cage containing a longitudinal slit to allow the polyvinyl tube to hang freely. An 8 ml. plastic collecting tube is attached to the flanged cannula and hangs freely below the cage. The first 30 minute sample is discarded designating this time as zero. The collecting tube is attached again and samples removed at the end of 60 and 120 minutes. Those samples are referred to as "A" and "B" in the table. The hourly samples are then transferred to a 15 ml. centrifuge tube and centrifuged for 5-10 minutes. Total and sediment volume are then recorded with the supernatant volume being used as volume of secretion. A 1 ml. or less aliquot is then removed and placed in a 50 ml. beaker containing 10 ml. of distilled water. This sample is then titrated using 0.01N NaOH to pH 7.0 using a Beckman zeromatic pH meter. Volume, titratable acidity (meq/L) and total acid output (μ eq/hour) are recorded. Percent inhibition is determined by comparison with the appropriate control. Groups of three rats were used. All compounds are administered in vehicle (0.5% methocel, 0.4% Tween 80, saline) at a constant volume of 1 ml./100 gram rat. Samples were sonicated with care to prevent overheating.

[2] = tested on: bronchospasms elicited by 5-hydroxytryptamine; experiment: Bronchodilator Activity (Konzett Assay) against 5-hydroxytryptamine; assay type: in vivo, guinea pigs; conditions: Cavia porcellus; three logarithmic cumulative intravenous doses
Method: (§1) Bronchodilator activity was determined in guinea pigs against bronchospasms elicited by intravenous injections of 5-hydroxytryptamine, histamine or acetylcholine by the Konzett procedure. [See J. Lulling, P. Lievens, F. El Sayed and J. Prignot, Arzeneimittel-Forschung, 18, 995 (1968)]. In Table IIIC which follows bronchodilator activity for representative compounds of this invention against one or more of the three spasmogenic agents is expressed as an ED50 determined from the results obtained with three logarithmic cumulative intravenous doses.

[3] = tested on: bronchospasms elicited by histamine; experiment: Bronchodilator Activity (Konzett Assay) against histamine; assay type: in vivo, guinea pigs; conditions: Cavia porcellus; three logarithmic cumulative intravenous doses
Method: as §1

diastolic blood pressure = experiment: Prostaglandin-like hypotensive activity in anesthetized rats (minimal dose for about 10 mm. decrease in diastolic blood pressure); assay type: in vivo, Male Wistar strain rats; conditions: Rattus norvegicus; intravenous; decrease of about 10 mm. in diastolic blood pressure
How it was run: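 Male Wistar rats (~250 g), pentobarbital 30 mg./kg. i.v. and hexamethonium 2 mg./kg. i.v., iliac artery cannulated for blood pressure. Compounds in saline-Tween 80 given i.v. at 0.1–10.0 mg./kg.; value is the minimal dose giving ~10 mm. drop in diastolic pressure.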

[4] = tested on: bronchospasms elicited by acetylcholine; experiment: Bronchodilator Activity (Konzett Assay) against acetylcholine; assay type: in vivo, guinea pigs; conditions: Cavia porcellus; three logarithmic cumulative intravenous doses
Method: as §1

[5] = tested on: Trichophyton mentagrophytes E 11; experiment: agar-dilution streak-plate antimicrobial assay; assay type: cell-based; conditions: E11, read-out: Minimal inhibitory conc. (4)
How it was run: (§2)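 MIC (µg/ml) read visually as complete growth inhibition on streaked agar plates. Compound stock 2.5 mg/ml, two-fold serial dilutions, 1 ml into 9 ml nutrient agar; separate agar for bacteria vs fungi. Inoculum: overnight broth cultures; filamentous fungi as spores in saline.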

[6] = tested on: Trichophyton tonsurans NIH 662; experiment: agar-dilution streak-plate antimicrobial assay; assay type: cell-based; conditions: NIH662, read-out: Minimal inhibitory conc. (3)
How it was run: as §2

[7] = tested on: dl-PGE1-induced contraction of gerbil colon; experiment: Inhibition of dl-PGE1-Induced Contraction of Gerbil Colon (prostaglandin antagonist action); assay type: cell-based, gerbils (Meriones unguiculatus); conditions: Meriones unguiculatus, 1 min; sub-maximal challenge, 20 ng./ml. dl-PGE1; 50% inhibition of maximum response; read-out: ID50 vs. 20 ng. of PGE1/ml.
How it was run: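 Ascending colon from male gerbils, held in De Jalon's solution at 37 °C under 95% O2/5% CO2 with 0.5 g resting tension, contraction recorded isometrically. 1 min compound exposure, then 1 min dl-PGE1 at 200 ng/ml (maximal) or 20 ng/ml (sub-maximal). Approximate ID50 taken from a concentration series against the preceding agonist-only cycle.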

[8] = tested on: Streptococcus pyogenes C 203; experiment: agar-dilution streak-plate antimicrobial assay; assay type: cell-based; conditions: C203, read-out: Minimal inhibitory conc. (8)
How it was run: as §2

[9] = tested on: Mycobacterium smegmatis ATCC 606; experiment: agar-dilution streak-plate antimicrobial assay; assay type: cell-based; conditions: Mycolicibacterium smegmatis, ATCC606, read-out: Minimal inhibitory conc. (6)
How it was run: as §2

gastric acid secretion [10] = experiment: Inhibition of Gastric Acid Secretion (Pylorous-Ligated Rat), Shay rat procedure; assay type: in vivo, rats (male, CFE strain); conditions: read-out: % Inhibition of Control Gastric Acid Secretion; for inhibition in vivo at 50 mg/kg: 50 mg./kg. intraduodenal
How it was run: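 Male CFE rats were fasted 48 h, then pylorus-ligated under ether. Gastric contents were titrated with 0.02N or 0.04N NaOH to pH 8.4 for acid output, and ≥20% inhibition counted as active.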

[11] = 2 h, B: 120 minute collection, read-out: % Inhibition Total Acid Output
[12] = 2 h, B: 120 minute collection, read-out: % Inhibition Total Acidity
[13] = 1 h, A: 60 minute collection, read-out: % Inhibition Total Acid Output
[14] = 1 h, A: 60 minute collection, read-out: % Inhibition Total Acidity

Row | SMILES | MIC [5] | MIC [6] | IC50 [7] | MIC [8] | MIC [9] | inhibition in vivo at 10 mg/kg (gastric acid secretion [1]; [11]) | inhibition in vivo at 10 mg/kg (gastric acid secretion [1]; [12]) | minimal effective dose (diastolic blood pressure) | inhibition in vivo at 100 mg/kg (gastric acid secretion [10]; 100 mg./kg. intraduodenal) | other results
1 | CCOCCC/C=C/[C@@H]1CCC(=O)[C@H]1CCCCCCC(=O)O (relative stereo) [18-oxa-9-oxo-13-trans-prostenoic acid] | 250 µg/mL (≈ 771 µM) | 250 µg/mL (≈ 771 µM) | 15 to 25 µg/mL (≈ 46.2 to 77.1 µM) | – | – | 56% | 43% | 2 mg/kg | – | ED50 [2]: 1.92 mg/kg; ED50 [3]: 1.5 mg/kg; ED50 [4]: > 10 mg/kg
2 | CCCCCCCCCC/C=C/[C@H]1CCC(=O)[C@@H]1CCCCCCC(=O)O (relative stereo) [20-butyl-9-oxo-13-trans-prostenoic acid] | – | 250 µg/mL (≈ 660 µM) | – | 10 µg/mL (≈ 26.4 µM) | 10 µg/mL (≈ 26.4 µM) | – | – | – | – | ED50 [2]: > 10 mg/kg; ED50 [3]: 2.4 mg/kg; ED50 [4]: > 10 mg/kg
3 | O=C(O)CCCC/C=C/[C@@H]1CCC(=O)[C@H]1CCCCCCC(=O)O (relative stereo) [20-carboxy-9-oxo-18,19-dinor-13-trans-prostenoic acid] | – | – | 35 µg/mL (≈ 103 µM) | – | – | 25% | 30% | 8 mg/kg | – | –
4 | CCCCCC/C=C/[C@@H]1CCC(=O)[C@H]1CCCCOCC(=O)OCC (relative stereo) [ethyl 9-oxo-3-oxa-13-trans-prostenoate, ethyl 3-oxa-9-oxo-13-trans-prostenoate] | – | – | – | – | – | – | – | – | 89% | inhibition in vivo at 10 mg/kg (gastric acid secretion [1]; [13]): 40%; inhibition in vivo at 10 mg/kg (gastric acid secretion [1]; [14]): 37%; inhibition in vivo at 50 mg/kg (gastric acid secretion [10]): 48%; inhibition in vivo at 109 mg/kg (gastric acid secretion [10]; 109 mg./kg., 1 hr. pre-ligation): 59%
5 | CCC/C=C/[C@H]1CCC(=O)[C@@H]1CCCCCCC(=O)OCC (relative stereo) [ethyl 9-oxo-18,19,20-trinor-13-trans-prostenoate] | 250 µg/mL (≈ 810 µM) | – | – | – | 250 µg/mL (≈ 810 µM) | – | – | – | 94% | inhibition in vivo at 100 mg/kg (gastric acid secretion [10]; 100 mg./kg., 1 hr. pre-ligation): 73%; inhibition in vivo at 8 mg/kg (gastric acid secretion [10]; sc, 8 mg./kg. subcutaneous): 40%
6 | CCOC(=O)CCCCCC[C@H]1C(=O)CC[C@@H]1/C=C/CCCI (relative stereo) [ethyl 20-iodo-9-oxo-17,18,19-trinor-13-trans-prostenoate] | 250 µg/mL (≈ 576 µM) | 250 µg/mL (≈ 576 µM) | – | – | 62 µg/mL (≈ 143 µM) | – | – | – | – | –

Further lines, with some results ahead:

Row | MIC [5] | MIC [6] | IC50 [7] | MIC [8] | MIC [9] | SMILES | inhibition in vivo at 10 mg/kg (gastric acid secretion [1]; [11]) | inhibition in vivo at 10 mg/kg (gastric acid secretion [1]; [12]) | minimal effective dose (diastolic blood pressure) | inhibition in vivo at 100 mg/kg (gastric acid secretion [10]; 100 mg./kg. intraduodenal) | other results
7 | 125 µg/mL (≈ 446 µM) | 250 µg/mL (≈ 892 µM) | – | 125 µg/mL (≈ 446 µM) | 125 µg/mL (≈ 446 µM) | CCCCCC/C=C/[C@H]1CCC(=O)[C@@H]1CC(=O)OCC (relative stereo) [ethyl 9-oxo-3,4,5,6,7-pentanor-13-trans-prostenoate] | – | – | 8 mg/kg | – | –
8 | 250 µg/mL (≈ 729 µM) | – | – | – | 250 µg/mL (≈ 729 µM) | CCOC(=O)CCCCCC[C@H]1C(=O)CC[C@@H]1/C=C/CCCCl (relative stereo) [ethyl 20-chloro-9-oxo-17,18,19-trinor-13-trans-prostenoate] | – | – | 0.2 to 1 mg/kg | 61% | –
9 | – | – | – | 250 µg/mL (≈ 660 µM) | 250 µg/mL (≈ 660 µM) | CCCCCC/C=C/[C@@H]1CCC(=O)[C@H]1CCCCCCC(=O)OCCCC (relative stereo) [n-butyl 9-oxo-13-trans-prostenoate] | – | – | 2 mg/kg | – | inhibition in vivo at 50 mg/kg (gastric acid secretion [10]): 20%
10 | – | – | 2 to 5 µg/mL (≈ 5.91 to 14.8 µM) | – | – | CCCCCCC=CC1CCC(C)(O)C1CCCCCCC(=O)O (stereo not drawn) [9-Hydroxy-9-methyl-13-trans-prostenoic acid] | 31% | 16% | – | – | ED50 [2]: 0.756 mg/kg; ED50 [3]: 1.18 mg/kg; ED50 [4]: 4.32 mg/kg
11 | – | – | 5 to 7 µg/mL (≈ 12.5 to 17.6 µM) | – | – | CCCCCCC=CC1CCC(=O)C1CCCCCC(C(=O)O)c1ccccc1 (stereo not drawn) [9-oxo-2-phenyl-13-trans-prostenoic acid] | 44% | 26% | – | – | –
12 | – | – | – | 13 µg/mL (≈ 40.1 µM) | 6 µg/mL (≈ 18.5 µM) | CCCCCC/C=C/[C@H]1CCC(O)[C@@H]1CCCCC(=O)OCC (stereo partly drawn) [ethyl 9-hydroxy-6,7-dinor-13-trans-prostenoate] | – | – | – | – | –
13 | – | – | 10 to 25 µg/mL (≈ 26.4 to 66 µM) | – | – | CCCCCC/C=C/[C@H]1CCC(=O)[C@@H]1CCCCCC(CC)C(=O)OCC (stereo partly drawn) [ethyl 9-oxo-2-ethyl-13-trans-prostenoate, ethyl 2-ethyl-9-oxo-13-trans-prostenoate] | 48% | 49% | – | 42% | inhibition in vivo at 10 mg/kg (gastric acid secretion [1]; [13]): 56%; inhibition in vivo at 10 mg/kg (gastric acid secretion [1]; [14]): 66%
